Data: patent US9096591B2, “Tetracyclic compounds” (Medivation Technologies, Inc., priority 2007, dated 2015)
One block for each molecule: values may come before it.

What was measured:
[1] = biological target: T1, human recombinant histamine H1 receptor (Homo sapiens, UniProt P35367); assay: Histamine H1 radioligand binding ([3H]Pyrilamine); details: […] [3H]Pyrilamine, read-out: Histamine Binding H1, percent inhibition of specific binding
T1 construct: expressed in transfected cells; host or cells: CHO cells
Protocol: To evaluate in radioligand binding assays the activity of compounds of the invention, human recombinant histamine H1 receptor expressed in Chinese hamster ovary (CHO) cells (De Backer M D et al. Biochem. Biophys. Res Comm. 197(3):1601, 1993) in a modified Tris-HCl buffer (50 mM Tris-HCl, pH 7.4, 2 mM MgCl2, 100 mM NaCl, 250 mM Sucrose) were used. […] Non-specific binding was estimated in the presence of 1 μM pyrilamine. Receptor proteins were filtered and washed, the filters were then counted to determine [^3H]pyrilamine specifically bound. […] Biochemical assay results are presented as the percent inhibition of specific binding in Table 5.
To evaluate in radioligand binding assays the activity of compounds of the invention, human recombinant histamine H1 receptor expressed in Chinese hamster ovary (CHO) cells (De Backer, M. D. et al., Biochem. Biophys. Res. Comm. 197(3):1601, 1993) in a modified Tris-HCl buffer (50 mM Tris-HCl, pH 7.4, 2 mM MgCl2, 100 mM NaCl, 250 mM Sucrose) was used. […] Non-specific binding was estimated in the presence of 1 μM pyrilamine. Receptor proteins were filtered and washed, the filters were then counted to determine [^3H]Pyrilamine specifically bound. Compounds were screened at 1 μM, using 1% DMSO as vehicle. Biochemical assay results are presented as the percent inhibition of specific binding in Table 6.

[2] = biological target: T2, human recombinant histamine H2 receptor (Homo sapiens, UniProt P25021); assay: Histamine H2 radioligand binding ([125I]Aminopotentidine); details: 0.3 μM compound; 0.1 nM [125I]Aminopotentidine; read-out: Histamine Binding H2, percent inhibition of specific binding
T2 construct: expressed in transfected cells; host or cells: CHO-K1 cells
Protocol: Non-specific binding was estimated in the presence of 3 μM Tiotidine. […] Biochemical assay results are presented as the percent inhibition of specific binding in Table 5.
Non-specific binding was estimated in the presence of 3 μM Tiotidine. […] Compounds were screened at 1 μM, using 1% DMSO as vehicle. Biochemical assay results are presented as the percent inhibition of specific binding in Table 6.

[3] = test system: adrenergic receptors α1D, α2A, α2B; serotonin receptor 5-HT6; dopamine receptor D2L; assay: Classification of compounds (Type 1-4) from receptor binding and neurite outgrowth
Text: Compounds of the invention that inhibit binding of a ligand to adrenergic receptors α1D, α2A, α2B and serotonin receptor 5-HT6 by at least about 80% as determined in a suitable assay such as the assays described herein can be classified as Type 1 compounds. […] In one variation, binding of a ligand to serotonin receptor 5-HT7 is at least about 80%. […] Weak inhibition of binding of a ligand to the histamine H1 receptor is permitted as agonists of this receptor have been implicated in stimulating memory as well as weight gain. In one variation, binding to histamine receptor H1 is inhibited by less than about 80%. […] Compounds that inhibit binding of a ligand to the dopamine D2L receptor by at least about 80% as determined in a suitable assay such as the assay described herein can be classified as Type 2 compounds.
In one variation, Type 1 compounds further inhibit binding of a ligand to dopamine receptor D2L by less than about 80% as determined in a suitable assay known in the art such as the assay described herein. […] In one variation, binding of a ligand to serotonin receptor 5-HT7, 5-HT2A and/or 5-HT2C is inhibited by at least about 80% as determined in a suitable assay such as the assays described herein. […] In one variation, binding of a ligand to histamine receptor H1 and/or H2 is inhibited by less than about 80% as determined by a suitable assay known in the art such as the assays described herein.
In one variation, biding to serotonin receptor 5-HT2A is inhibited by at least about 80% as determined in a suitable assay know in the art such as the assay described herein.

[4] = test system: mice; assay: recognition test of new location of a known object (spatial memory); assay type: in vivo
[5] = test system: synaptosomes of cortex of rat brain; assay: Glutamate-induced 45Ca2+ uptake into synaptosomes; assay type: biochemical, Wistar rats; details: for % Ca of control (control-100%), glutamate-induced 45Ca2+ uptake into synaptosomes: rat cortex synaptosomes
Protocol: Synaptosomes were obtained from cerebral cortex of newborn (9-10 days) Wistar rats using standard Hajos method. The brain was homogenized with 10 volumes of cooled 0.32 M sucrose at 900 rpm. The homogenate was centrifuged at 1500 g for 10 min. and the resulted supernatant was centrifuged at 10000 g for 20 min. The radioactive label was accumulated by suspension of the synaptosomal P2-fraction in the incubation buffer A having the following composition: 132 mM NaCl, 5 mM KCl, 5 mM HEPES, 10 mM glucose, pH 7.4 (protein concentration of approximately 1.5-2 mg/ml). The mixture was further incubated for 5 min with 200 μM glutamate at 37° C. and then ^45Ca^2+ uptake was stopped by filtration through GF/B filters (Whatman, England) followed by three washes with cold buffer B (145 mM KCl, 10 mM Tris, 5.4 mM Trilon B, pH 7.4). The radioactivity probes were analyzed by fluid scintillation beta-analyzer (TriCarb, Perkin Elmer). All tests were performed in three parallel trials in 2-3 independent experiments. The amount of ^45Ca^2+ uptake was estimated by calculating the difference of radioactive label during the stimulation with glutamate and without the stimulation with agonist.
Specific ^45Ca^2+ uptake was estimated using the following equation: K(43/21)=[(Ca4−Ca3)/(Ca2−Ca1)]100%, where
Ca1—^45Ca^2+ uptake for the Control (without glutamate and the compound tested),
[…] glutamate-induced ^45Ca^2+ uptake (glutamate only),
Ca3—^45Ca^2+ uptake in the presence of the compound tested (without glutamate),
Ca4—^45Ca^2+ uptake in the presence of glutamate and the testing compound.
Statistical analysis of the results was performed using Student's t-test.

T1 sequence (P35367 whole entry): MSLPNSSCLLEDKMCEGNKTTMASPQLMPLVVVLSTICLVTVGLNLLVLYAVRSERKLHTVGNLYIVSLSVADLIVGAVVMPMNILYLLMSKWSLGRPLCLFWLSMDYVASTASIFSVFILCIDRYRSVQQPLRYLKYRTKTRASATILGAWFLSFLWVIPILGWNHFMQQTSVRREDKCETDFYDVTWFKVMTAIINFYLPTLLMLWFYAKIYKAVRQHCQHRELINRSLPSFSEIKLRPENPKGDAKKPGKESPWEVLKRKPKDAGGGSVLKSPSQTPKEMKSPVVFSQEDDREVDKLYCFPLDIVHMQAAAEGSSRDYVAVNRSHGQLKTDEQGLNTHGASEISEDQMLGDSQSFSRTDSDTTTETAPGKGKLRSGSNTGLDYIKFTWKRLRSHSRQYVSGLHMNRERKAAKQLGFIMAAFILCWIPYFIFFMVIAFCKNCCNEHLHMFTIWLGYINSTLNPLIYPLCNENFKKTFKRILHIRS
T2 sequence (P25021 whole entry): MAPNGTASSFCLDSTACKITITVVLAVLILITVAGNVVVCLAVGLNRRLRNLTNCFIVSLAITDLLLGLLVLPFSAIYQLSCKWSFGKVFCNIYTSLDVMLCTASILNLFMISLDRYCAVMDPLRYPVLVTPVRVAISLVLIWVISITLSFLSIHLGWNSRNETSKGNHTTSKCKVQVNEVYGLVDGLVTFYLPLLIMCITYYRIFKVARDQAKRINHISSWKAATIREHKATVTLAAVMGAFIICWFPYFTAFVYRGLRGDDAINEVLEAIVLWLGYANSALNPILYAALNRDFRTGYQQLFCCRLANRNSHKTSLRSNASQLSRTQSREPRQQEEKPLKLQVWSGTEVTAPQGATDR

inhibition at 0.03 µM ([1]; 0.03 μM compound): 37%
inhibition at 0.1 µM ([1]; 0.1 μM compound): 57%
inhibition at 0.3 µM [2]: 27%
compound type (classification by receptor binding profile and neurite outgrowth) [3]: Type one
SMILES: CCN1CCc2c(c3cc(C)ccc3n2CC(O)c2ccc(C)cc2)C1 (racemic) [Compound 29, racemic-2-(2-ethyl-1,2,3,4-tetrahydro-8-methylpyrido[4,3-b]indol-5-yl)-1-p-tolylethanol]

SMILES: CN1CCc2c(c3cc(F)ccc3n2CCc2noc(-c3ccccc3)n2)C1 [Compound C4-7]
Influence on memory in the test recognition new localization of known object ([4]; Dose of Compound 0.05 mg/kg): −
Influence on memory in the test recognition new localization of known object ([4]; Dose of Compound 0.1 mg/kg): +
Influence on memory in the test recognition new localization of known object ([4]; Dose of Compound 0.5 mg/kg): −
Influence on memory in the test recognition new localization of known object ([4]; Dose of Compound 1.0 mg/kg): −
effect of the dose on exploration time / memory (in words) ([4]; mice, dose 0.05 mg/kg): not effective
time exploring the object in a new location, % of the total time ([4]; mice, dose 0.1 mg/kg): 63.4±10.4%
time exploring the object in the known position, % of the total time ([4]; mice, dose 0.1 mg/kg): 36.6±10.4%
effect of the dose on exploration time / memory (in words) ([4]; mice, dose 0.5 mg/kg): not effective
effect of the dose on exploration time / memory (in words) ([4]; mice, dose 1 mg/kg): not effective
overall effect on memory (in words) ([4]; mice, doses 0.05-1 mg/kg): stimulated memory
concentration at which glutamate-induced 45Ca2+ uptake into synaptosomes was not affected [5]: 0.1 to 10 µM
glutamate-induced 45Ca2+ uptake into synaptosomes of rat cortex, % of control ([5]; 50-100 μM): ~128%
% Ca of control (control-100%), glutamate-induced 45Ca2+ uptake into synaptosomes ([5]; compound 0.1 μM): 97.2 ± 5.5%
% Ca of control (control-100%), glutamate-induced 45Ca2+ uptake into synaptosomes ([5]; compound 0.5 μM): 87.6 ± 3.9%
% Ca of control (control-100%), glutamate-induced 45Ca2+ uptake into synaptosomes ([5]; compound 1 μM): 105.3 ± 2.8%
% Ca of control (control-100%), glutamate-induced 45Ca2+ uptake into synaptosomes ([5]; compound 5 μM): 109.2 ± 10%
% Ca of control (control-100%), glutamate-induced 45Ca2+ uptake into synaptosomes ([5]; compound 10 μM): 101.6 ± 7.8%
% Ca of control (control-100%), glutamate-induced 45Ca2+ uptake into synaptosomes ([5]; compound 50 μM): 128.3 ± 8.1%
% Ca of control (control-100%), glutamate-induced 45Ca2+ uptake into synaptosomes ([5]; compound 100 μM): 123.6 ± 4.9%

SMILES: CN1CCc2c(c3ccccc3n2CCc2noc(-c3ccccc3)n2)C1 [Compound G6-a, 2-Methyl-5-[2-(5-phenyl-1,2,4-oxadiazol-3-yl)ethyl]-2,3,4,5-tetrahydro-1H-pyrido[4,3-b]indole]
melting point: 111 to 112 °C

melting point: 77.5 to 79 °C
SMILES: COc1ccc2c(c1)c1c(n2CCc2noc(-c3ccccc3)n2)CCN(C)C1 [Compound G6-b, 8-Methoxy-2-methyl-5-[2-(5-phenyl-1,2,4-oxadiazol-3-yl)ethyl]-2,3,4,5-tetrahydro-1H-pyrido[4,3-b]indole]

SMILES: Cc1ccc2c(c1)c1c(n2CCc2noc(-c3ccccc3)n2)CCN(C)C1 [Compound G6-c, 2,8-Dimethyl-5-[2-(5-phenyl-1,2,4-oxadiazol-3-yl)ethyl]-2,3,4,5-tetrahydro-1H-pyrido[4,3-b]-indole]
melting point: 120 to 120.5 °C

SMILES: CN1CCc2c(c3cc(Cl)ccc3n2CCc2noc(-c3ccccc3)n2)C1 [Compound G6-d, 8-Chloro-2-methyl-5-[2-(5-phenyl-1,2,4-oxadiazol-3-yl)ethyl]-2,3,4,5-tetrahydro-1H-pyrido-[4,3-b]indole]
melting point: 122 to 123 °C

melting point: 121.5 to 122.5 °C
SMILES: CN1CCc2c(c3cc(F)ccc3n2CCc2noc(-c3ccccc3)n2)C1 [Compound G6-f, 8-Fluoro-2-methyl-5-[2-(5-phenyl-1,2,4-oxadiazol-3-yl)ethyl]-2,3,4,5-tetrahydro-1H-pyrido-[4,3-b]indole]

SMILES: COc1ccc2c(c1)c1c(n2CCc2nc(-c3ccccc3)cs2)CCN(C)C1 [Compound G8-b, 8-Methoxy-2-methyl-5-[2-(4-phenylthiazol-2-yl)ethyl]-2,3,4,5-tetrahydro-1H-pyrido[4,3-b]indole]
melting point: 135 to 136.5 °C

SMILES: Cc1ccc2c(c1)c1c(n2CCc2nc(-c3ccccc3)cs2)CCN(C)C1 [Compound G8-c, 2,8-Dimethyl-5-[2-(4-phenylthiazol-2-yl)ethyl]-2,3,4,5-tetrahydro-1H-pyrido[4,3-b]indole]
melting point: 148.5 to 149 °C

SMILES: CN1CCc2c(c3cc(F)ccc3n2CCc2nc(-c3ccccc3)cs2)C1 [Compound G8-f, 8-Fluoro-2-methyl-5-[2-(4-phenylthiazol-2-yl)ethyl]-2,3,4,5-tetrahydro-1H-pyrido[4,3-b]indole]
melting point: 136.5 to 137 °C

melting point: 216 to 219 °C
SMILES: CN1CCc2c(c3cc(Cl)ccc3n2CCc2n[nH]c(=S)n2C)C1 [Compound G11-b, 5-[2-(8-Chloro-2-methyl-2,3,4,5-tetrahydro-1H-pyrido[4,3-b]indol-5-yl)ethyl]-4-methyl-2,4-dihydro-1,2,4-triazole-3-thione]

melting point: 215 to 218 °C
SMILES: CN1CCc2c(c3cc(F)ccc3n2CCc2n[nH]c(=S)n2C)C1 [Compound G11-c, 5-[2-(8-Fluoro-2-methyl-2,3,4,5-tetrahydro-1H-pyrido[4,3-b]indol-5-yl)ethyl]-4-methyl-2,4-dihydro-1,2,4-triazole-3-thione]

melting point: 219 to 222 °C
SMILES: COc1ccc2c(c1)c1c(n2CCc2n[nH]c(=S)n2C)CCN(C)C1 [Compound G11-d, 5-[2-(8-Methoxy-2-methyl-2,3,4,5-tetrahydro-1H-pyrido[4,3-b]indol-5-yl)ethyl]-4-methyl-2,4-dihydro-1,2,4-triazole-3-thione]
